± gives the expanded uncertainty stated by the source.
Columns and labels:
[1] = 101 kPa, Liquid
[2] = xn = mol fraction of the nth substance listed; conditions: 101 kPa, Liquid

CO [methanol]
[1]
Conditions	mass density [kg/m3]	speed of sound [m/s]
298.15 K	786.531 ± 2.4	–
303.15 K	781.808 ± 2.4	1086.4 ± 9.2
308.15 K	777.066 ± 2.4	1070.1 ± 9.1
313.15 K	772.283 ± 2.5	1054 ± 9
318.15 K	767.474 ± 2.5	1037.9 ± 8.9

CCCCn1cc[n+](C)c1.F[B-](F)(F)F [1-butyl-3-methylimidazolium tetrafluoroborate] + CO
[2]
Conditions	mass density, 298.15 K [kg/m3]	mass density, 303.15 K [kg/m3]	mass density, 308.15 K [kg/m3]	mass density, 313.15 K [kg/m3]	mass density, 318.15 K [kg/m3]	speed of sound, 298.15 K [m/s]	speed of sound, 303.15 K [m/s]	speed of sound, 308.15 K [m/s]	speed of sound, 313.15 K [m/s]	speed of sound, 318.15 K [m/s]
x1 = 0.0086	805.151 ± 2.2	800.482 ± 2.3	795.796 ± 2.3	791.081 ± 2.3	786.347 ± 2.4	–	1105.3 ± 9.3	1089.3 ± 9.2	1073.5 ± 9.1	1057.8 ± 9
x1 = 0.0473	871.093 ± 1.7	866.582 ± 1.7	862.063 ± 1.8	857.529 ± 1.8	852.979 ± 1.8	–	1162.4 ± 9.7	1147.8 ± 9.6	1133.1 ± 9.5	1118.6 ± 9.4
x1 = 0.0989	935.734 ± 1.2	931.386 ± 1.2	927.032 ± 1.3	922.668 ± 1.3	918.304 ± 1.3	–	1224.6 ± 10	1211 ± 10	1197.5 ± 9.9	1184 ± 9.8
x1 = 0.2027	1020.75 ± 0.88	1016.6 ± 0.84	1012.46 ± 0.81	1008.33 ± 0.78	1004.19 ± 0.76	–	1321.8 ± 11	1309.2 ± 11	1296.5 ± 11	1284 ± 10
x1 = 0.3516	1090.69 ± 1.6	1086.81 ± 1.5	1082.62 ± 1.5	1079.1 ± 1.5	1075.21 ± 1.4	1423.6 ± 11	1411.3 ± 11	1399.1 ± 11	–	1375 ± 11
x1 = 0.4958	1131.97 ± 2.1	1128.15 ± 2	1124.35 ± 2	1120.99 ± 2	1117.11 ± 1.9	1477 ± 12	1465 ± 12	1453.1 ± 12	1441.8 ± 11	1430.1 ± 11
x1 = 0.6961	1168.33 ± 2.7	1164.63 ± 2.7	1160.96 ± 2.6	1157.3 ± 2.6	1153.66 ± 2.6	1524.1 ± 12	1512.2 ± 12	1500.4 ± 12	1488.8 ± 12	1477.2 ± 12
x1 = 0.7982	1181.54 ± 3	1177.91 ± 3	1174.28 ± 3	1170.67 ± 2.9	1167.07 ± 2.9	1541.2 ± 12	1529.5 ± 12	1517.9 ± 12	1506.3 ± 12	1494.8 ± 12
x1 = 1	1201.42 ± 3.8	1197.88 ± 3.7	1194.35 ± 3.7	1190.82 ± 3.7	1187.29 ± 3.6	1576 ± 12	1555.5 ± 12	1543.9 ± 12	1532.5 ± 12	1521.2 ± 12

CO [methanol] + CCCCn1cc[n+](C)c1.F[B-](F)(F)F
[2], x2 = 0
Conditions	mass density [kg/m3]	speed of sound [m/s]
298.15 K	786.531 ± 2.4	–
303.15 K	781.808 ± 2.4	1086.4 ± 9.2
308.15 K	777.066 ± 2.4	1070.1 ± 9.1
313.15 K	772.283 ± 2.5	1054 ± 9
318.15 K	767.474 ± 2.5	1037.9 ± 8.9

CC#N [acetonitrile] + CCCCn1cc[n+](C)c1.F[B-](F)(F)F
[2], x2 = 0
Conditions	mass density [kg/m3]	speed of sound [m/s]
298.15 K	776.533 ± 2.4	1278.6 ± 10
303.15 K	771.116 ± 2.5	1258.7 ± 10
308.15 K	765.66 ± 2.5	1238.7 ± 10
313.15 K	760.162 ± 2.6	1218.5 ± 10
318.15 K	754.462 ± 2.6	1198.3 ± 9.9

CCCCn1cc[n+](C)c1.F[B-](F)(F)F [1-butyl-3-methylimidazolium tetrafluoroborate] + CC#N
[2]
Conditions	mass density, 298.15 K [kg/m3]	mass density, 303.15 K [kg/m3]	mass density, 308.15 K [kg/m3]	mass density, 313.15 K [kg/m3]	mass density, 318.15 K [kg/m3]	speed of sound, 298.15 K [m/s]	speed of sound, 303.15 K [m/s]	speed of sound, 308.15 K [m/s]	speed of sound, 313.15 K [m/s]	speed of sound, 318.15 K [m/s]
x1 = 0.0103	794.416 ± 2.3	789.093 ± 2.3	783.745 ± 2.4	778.368 ± 2.4	772.971 ± 2.5	1289.2 ± 10	1269.3 ± 10	1249.6 ± 10	1230 ± 10	1210.3 ± 10
x1 = 0.0442	845.059 ± 1.9	839.982 ± 1.9	834.883 ± 2	829.765 ± 2	824.63 ± 2.1	1315.7 ± 11	1297 ± 11	1278.2 ± 10	1259.5 ± 10	1240.8 ± 10
x1 = 0.1032	913.689 ± 1.4	908.908 ± 1.4	904.123 ± 1.4	899.327 ± 1.5	894.531 ± 1.5	1354.8 ± 11	1337.2 ± 11	1319.7 ± 11	1302.3 ± 11	1284.9 ± 10
x1 = 0.2015	994.016 ± 0.76	989.579 ± 0.8	985.147 ± 0.83	980.715 ± 0.86	976.287 ± 0.91	1407.7 ± 11	1391.8 ± 11	1375.8 ± 11	1359.6 ± 11	1344.1 ± 11
x1 = 0.2931	1045.58 ± 1.1	1041.36 ± 1.1	1037.15 ± 1.1	1032.94 ± 1	1028.74 ± 1	1445.2 ± 11	1430.2 ± 11	1415.2 ± 11	1400.5 ± 11	1385.8 ± 11
x1 = 0.3935	1086.98 ± 1.6	1082.93 ± 1.5	1078.89 ± 1.5	1074.86 ± 1.5	1070.84 ± 1.4	1476.8 ± 12	1462.7 ± 12	1448.6 ± 11	1434.6 ± 11	1420.8 ± 11
x1 = 0.5352	1128.52 ± 2.1	1124.64 ± 2.1	1120.78 ± 2	1116.92 ± 2	1113.08 ± 2	1509.2 ± 12	1495.9 ± 12	1482.6 ± 12	1469.7 ± 12	1456.9 ± 12
x1 = 0.7043	1162.31 ± 2.7	1158.57 ± 2.6	1154.85 ± 2.6	1151.13 ± 2.6	1147.43 ± 2.5	1535.9 ± 12	–	1511.1 ± 12	1498.8 ± 12	1486.6 ± 12
x1 = 1	1201.42 ± 3.8	1197.88 ± 3.7	1194.35 ± 3.7	1190.82 ± 3.7	1187.29 ± 3.6	1576 ± 12	1555.5 ± 12	1543.9 ± 12	1532.5 ± 12	1521.2 ± 12

CCCCn1cc[n+](C)c1.F[B-](F)(F)F [1-butyl-3-methylimidazolium tetrafluoroborate]
[1]
Conditions	mass density [kg/m3]	speed of sound [m/s]
298.15 K	1201.42 ± 3.8	1576 ± 12
303.15 K	1197.88 ± 3.7	1555.5 ± 12
308.15 K	1194.35 ± 3.7	1543.9 ± 12
313.15 K	1190.82 ± 3.7	1532.5 ± 12
318.15 K	1187.29 ± 3.6	1521.2 ± 12

CC#N [acetonitrile]
[1]
Conditions	mass density [kg/m3]	speed of sound [m/s]
298.15 K	776.533 ± 2.4	1278.6 ± 10
303.15 K	771.116 ± 2.5	1258.7 ± 10
308.15 K	765.66 ± 2.5	1238.7 ± 10
313.15 K	760.162 ± 2.6	1218.5 ± 10
318.15 K	754.462 ± 2.6	1198.3 ± 9.9

From the NIST ThermoML archive (doi:10.1016/j.jct.2006.01.016)
